Source: ChEMBL document CHEMBL5321205, “Development and therapeutic potential of adaptor-associated kinase 1 inhibitors in human multifaceted diseases” (Eur J Med Chem, 2023)
One block for each molecule: values may come before it.

Key:
[1] = Oral bioavailability in mouse at 10 mg/kg measured upto 24 hrs; assay type: ADME, organism-based; settings: in vivo
[2] = Half life in mouse at 10 mg/kg, po or 1 mg/kg, iv measured upto 24 hrs; assay type: ADME, organism-based; settings: in vivo
[3] = molecular target: T1, AP2-associated protein kinase 1 (Homo sapiens, UniProt Q2M2I8); assay: Inhibition of AAK1 expressed in human […] cells; assay type: cell-based, HEK293F
T1 sequence (Q2M2I8 whole entry): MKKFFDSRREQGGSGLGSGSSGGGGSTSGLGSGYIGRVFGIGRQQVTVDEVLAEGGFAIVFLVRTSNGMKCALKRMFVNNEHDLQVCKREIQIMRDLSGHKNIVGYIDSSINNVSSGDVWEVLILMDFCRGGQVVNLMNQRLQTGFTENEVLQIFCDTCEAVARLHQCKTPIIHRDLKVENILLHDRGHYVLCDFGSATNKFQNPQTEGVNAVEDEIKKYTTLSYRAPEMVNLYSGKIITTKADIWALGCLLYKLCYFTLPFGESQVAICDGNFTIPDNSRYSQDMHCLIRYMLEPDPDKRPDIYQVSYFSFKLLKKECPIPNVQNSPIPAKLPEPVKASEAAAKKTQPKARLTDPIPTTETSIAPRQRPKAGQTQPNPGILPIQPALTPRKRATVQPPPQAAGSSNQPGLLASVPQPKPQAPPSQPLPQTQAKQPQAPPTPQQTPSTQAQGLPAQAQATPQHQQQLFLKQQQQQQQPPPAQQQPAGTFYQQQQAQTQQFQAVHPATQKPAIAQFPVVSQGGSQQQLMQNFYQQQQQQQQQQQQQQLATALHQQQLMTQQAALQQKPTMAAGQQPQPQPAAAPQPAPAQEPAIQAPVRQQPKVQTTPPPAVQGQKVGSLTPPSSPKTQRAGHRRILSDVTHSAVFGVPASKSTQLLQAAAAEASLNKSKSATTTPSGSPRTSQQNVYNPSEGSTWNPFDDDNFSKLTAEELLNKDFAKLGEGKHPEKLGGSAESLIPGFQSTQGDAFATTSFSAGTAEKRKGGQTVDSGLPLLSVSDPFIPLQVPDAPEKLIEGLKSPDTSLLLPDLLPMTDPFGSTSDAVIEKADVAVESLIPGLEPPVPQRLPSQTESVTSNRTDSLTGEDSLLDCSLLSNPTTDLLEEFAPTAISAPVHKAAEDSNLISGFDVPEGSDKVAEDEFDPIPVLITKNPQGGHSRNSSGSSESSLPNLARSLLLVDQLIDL

[4] = molecular target: T1, AP2-associated protein kinase 1; assay: Inhibition of AAK1 (unknown origin)
[5] = molecular target: T1, AP2-associated protein kinase 1; assay: Binding affinity of AAK1 (unknown origin) assessed as dissociation constant
[6] = molecular target: T1, AP2-associated protein kinase 1; assay: Inhibition of GST-tagged recombinant AAK1 (unknown origin) using AP2M1 peptide as substrate by ADP-Glo kinase assay
[7] = molecular target: T1, AP2-associated protein kinase 1; assay: Inhibition of GST-Xa-tagged recombinant human AAK1 using (5-FAM)-Aha-KEEQSQITSQVTGQIGWR-NH2 as substrate assessed as reduction in AP2M1 phosphorylation incubated for 3 hrs in presence of ATP by fluorescence based assay

IC50 [3]: 2.9 nM
SMILES: CC(C)C[C@](C)(N)COc1ccc(-c2ccncc2)cc1C(F)(F)F

IC50 [4]: < 10 nM | Kd [5]: 1 nM
SMILES: COc1ncccc1-c1cnc2ccc(N3CC[C@@H](N(C)C(=O)OC(C)C)C3)nn12

IC50 [4]: < 10 nM | Kd [5]: 1 nM
SMILES: COc1ncccc1-c1cnc2ccc(N3CC[C@@H](N(C)C(=O)OC(C)(C)C)C3)nn12

IC50 [7]: 2.8 nM
SMILES: [3H]CC([3H])(C[3H])C([3H])[C@H](N)COc1ccc2c(c1)[nH]c(=O)c1cnccc12 (stereo partly specified)

The remaining lines, values behind:

SMILES: COc1ncccc1-c1cnn2ccc(N3CCN(C(=O)OC(C)C)CC3)nc12
bioavailability [1]: 100% | half-life [2]: 3.6 h

SMILES: COC(=O)c1ccc2c(c1)NC(=O)C2C(Nc1ccc(N(C)C(=O)CN2CCN(C)CC2)cc1)c1ccccc1 (stereo unspecified)
Kd [5]: 1060 nM

SMILES: COC(=O)[C@@]1(O)C[C@@H]2O[C@]1(C)n1c3ccccc3c3c4c(c5c6ccccc6n2c5c31)C(=O)NC4
IC50 [6]: < 10 nM

SMILES: COC(=O)[C@@]1(O)[C@@H](C)[C@H]2O[C@]1(C)n1c3ccccc3c3c4c(c5c6ccccc6n2c5c31)C(=O)NC4
IC50 [6]: < 30 nM
